In PMC4769034 (Journal of medicinal chemistry, 2015):
≈ marks a conversion by molar mass, not a printed value.

Assays:
hERG = conditions: cited from earlier work
PDEs = conditions: cited from earlier work
[1] = cited from earlier work
[2] = test system: Middle East respiratory syndrome coronavirus (MERS-Cov); conditions: cited from earlier work
[3] = no reference given; cited from earlier work
CYP450 enzymes = conditions: cited from earlier work
[4] = test system: pancreatic ductal adenocarcinoma (PDA) cells; conditions: cited from earlier work
rickettsial infection = conditions: mouse, in vivo; cited from earlier work
MIA PaCa-2 cells = conditions: 10 mg/kg via i.p. injection for 3 weeks; cited from earlier work
[5] = cited from earlier work; remark: listed apart in the source
PKA = conditions: cited from earlier work
plasma leptin = conditions: 50 mg/kg by oral gavage for 3 weeks; cited from earlier work
[6] = Solubility in water by HPLC analysis
[7] = Solubility in ethanol by HPLC analysis; conditions: vs compound 1

| SMILES | inhibitory activity toward hERG (hERG) | inhibitory effects on PDEs (PDEs) | bioavailability [1] | MERS-CoV viral yields [2] | membrane permeability [3] | inhibitory activity toward CYP450 enzymes (CYP450 enzymes) | PDA cell migration and invasion [4] | effect on PDA cell proliferation and viability [4] | survival after rickettsial infection (rickettsial infection) | metastasis to the liver (MIA PaCa-2 cells) | toxicity to animals [5] | effect toward PKA (PKA) | plasma leptin (plasma leptin) | fold improvement of solubility in water in comparison with 1 ([6]; vs compound 1) | solubility at 24 h ([6]; water) | fold improvement of solubility in ethanol in comparison with 1 [7] |
| --- | --- | --- | --- | --- | --- | --- | --- | --- | --- | --- | --- | --- | --- | --- | --- | --- |
| CC(C)(C)c1cc(C(=O)/C(C#N)=N/Nc2cccc(Cl)c2)no1 [Compound 1, 2-(5-tert-butylisoxazol-3-yl)-N′-(3-chlorophenyl)-2-oxoacetohy-drazonoyl cyanide] | very weak inhibitory activities | no significant inhibitory effects | excellent bioavailability | significantly reduce viral yields | good membrane permeability | very weak inhibitory activities | significant decrease | no obvious effect | dramatically improved survival | significantly decrease metastasis to the liver | low toxicity | no effect | significantly reduces plasma leptin | – | – | – |
| CC(C)(C)c1cc(C(=O)/C(C#N)=N/Nc2cc(C(F)(F)F)cc(C(F)(F)F)c2)no1 [Compound 25, N′-(3,5-Bis(trifluoromethyl)phenyl)-2-(5-tert-butylisoxazol-3-yl)-2-oxoacetohydrazonoyl Cyanide] | – | – | – | – | – | – | – | – | – | – | – | – | – | approximately 70 fold | 418 ± 17.3 µg/mL (≈ 968 µM) | ~10 fold |
